Patent US6130324A, “Amphipathic oligonucleotides and polynucleotides having potent antiviral activity” (University of Utah Research Foundation, priority 1999, dated 2000)
Like-named read-outs stand apart in the source and are kept apart here.

Legend:
HIV strain ROD = assay: Inhibition of cytopathic effect of HIV strain ROD in CEM-SS cells; assay type: cell-based, human immunodeficiency virus
Description: (§1) Assays for anti-HIV activity of poly(1-propargylinosineic) prepared according to the procedure of Examples 1-4 were conducted by Dr. Robert Buckheit, Jr. of the Southern Research Institute with strains of HIV-1 and HIV-2 in various cell lines and with cell free preparations of reverse transcriptase as previously described, Broom et al. (1995), J. Med. Chem. 38:3253-3257.

HIV strain SK1 = assay: Inhibition of cytopathic effect of HIV strain SK1 in CEM-SS cells; assay type: cell-based, human immunodeficiency virus
Description: as §1

HIV strain RF = assay: Inhibition of cytopathic effect of HIV strain RF in CEM-SS cells; assay type: cell-based, human immunodeficiency virus
Description: as §1

HIV strain IIIB = assay: Inhibition of cytopathic effect of HIV strain IIIB in CEM-SS cells; assay type: cell-based, human immunodeficiency virus; conditions: polynucleotide concentration based on average molecular weight of 100,000, read-out: EC50 against cytopathic effect, virus IIIB
Description: as §1

HCMV strain AD-169 = assay: Anti-HCMV activity, AD-169 strain in MRC-5 cell line; assay type: cell-based, human cytomegalovirus; conditions: HCMV AD-169 in MRC-5 cell line; for EC50: Human betaherpesvirus 5, AD169, MRC5, read-out: ED50 (50% effective dose)
Description: (§2) Assays of anti-HCMV activity were conducted by Drs. R. Sidwell and J. Huffman at Utah State University with the AD-169 strain in the MRC-5 cell line as described in Huffman et al. (1994), Nucleosides and Nucleotides 33:607-613.

[1] = system: reverse transcriptase (RT); assay: Inhibition of reverse transcriptase in a cell free supernate; assay type: biochemical, human immunodeficiency virus; conditions: concentrations based on average molecular weight of 100,000
Description: as §1

MRC-5 cell line = assay: Cytotoxicity in the anti-HCMV assay (MRC-5 cell line); assay type: cell-based; conditions: MRC-5 cell line
Description: as §2

[2] = as above; assay type: cell-based; conditions: human, mrc-5 cells
Description: as §2

[3] = polynucleotide concentration based on average molecular weight of 100,000 daltons

In the case of `Nc1ccn([C@H]2CC[C@@H](CO)O2)c(=O)n1` [ddC, reference compound], the EC50 (HIV strain ROD; Human immunodeficiency virus 1, polynucleotide concentration based on average molecular weight of 100,000, read-out: EC50 against cytopathic effect, virus ROD) is reported as 62.1 nM, the EC50 (HIV strain SK1; Human immunodeficiency virus 1, polynucleotide concentration based on average molecular weight of 100,000, read-out: EC50 against cytopathic effect, virus SK1) is reported as 25.4 nM and the EC50 (HIV strain RF; Human immunodeficiency virus 1, polynucleotide concentration based on average molecular weight of 100,000, read-out: EC50 against cytopathic effect, virus RF) is reported as 39 nM. For the same compound, the EC50 (HIV strain IIIB; Human immunodeficiency virus 1, IIIB) was 69.3 nM.
For poly(1-propargylinosinic acid), the EC50 (HIV strain ROD; polynucleotide concentration based on average molecular weight of 100,000, read-out: EC50 against cytopathic effect, virus ROD) was 57.9 nM, the “ED50 (50% effective dose)” value (HCMV strain AD-169) was 1.9 µg/mL and the “ED50 (50% effective dose), molar” value (HCMV strain AD-169; [3]) was 19 nM. The EC50 [1] was 223 nM, the EC50 (HIV strain SK1; polynucleotide concentration based on average molecular weight of 100,000, read-out: EC50 against cytopathic effect, virus SK1) was 44.4 nM and the EC50 (HIV strain RF; Table 2, RF strain, concentrations based on average molecular weight of 100,000, read-out: CEM-SS (RF), EC50) was 131 nM. The EC50 (HIV strain RF; polynucleotide concentration based on average molecular weight of 100,000, read-out: EC50 against cytopathic effect, virus RF) was 131 nM, the “CD50 (50% cytotoxic dose)” value (MRC-5 cell line) was 316 µg/mL and the “CD50 (50% cytotoxic dose), molar” value (MRC-5 cell line; concentration based on average molecular weight of 100,000 daltons) was 3.16 µM. For the same compound, the EC50 (HIV strain IIIB) was 263 nM.
With `Nc1nc(O)c2ncn(COC(CO)CO)c2n1` [Ganciclovir, ganciclovir] the “TI = CD50 / ED50” value (HCMV strain AD-169) was > 417, the EC50 (HCMV strain AD-169; [3]) was 9400 nM and the EC50 (HCMV strain AD-169) was 2.4 µg/mL. The CC50 [2] was > 1000 µg/mL.
